Experimental data from ChEMBL document CHEMBL1133152, “Design and synthesis of mimics of S-adenosyl-L-homocysteine as potential inhibitors of erythromycin methyltransferases” (Bioorg Med Chem Lett, 2000).

Legend:
[1] = biological target: T1, rRNA adenine N-6-methyltransferase (Streptococcus pneumoniae, UniProt P21236); experiment: Inhibition of ErmAM methylase
T1 sequence (P21236 whole entry): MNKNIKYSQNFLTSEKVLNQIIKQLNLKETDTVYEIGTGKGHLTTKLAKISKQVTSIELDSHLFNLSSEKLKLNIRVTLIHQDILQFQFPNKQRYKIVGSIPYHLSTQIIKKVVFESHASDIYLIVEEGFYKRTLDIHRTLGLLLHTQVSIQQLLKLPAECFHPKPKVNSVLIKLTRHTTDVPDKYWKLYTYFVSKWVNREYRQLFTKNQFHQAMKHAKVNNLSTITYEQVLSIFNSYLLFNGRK

[2] = The compound was tested for its ability to inhibit ErmC methylase at 100 uM
[3] = The compound was tested for its ability to inhibit ErmC methylase; Range 50-100
[4] = The compound was tested for its ability to inhibit ErmAM methylase at 100 uM
[5] = The compound was tested for its ability to inhibit ErmC methylase
[6] = The compound was tested for its binding ability to inhibit ErmAM methylase

SMILES | Ki [1] [µM] | inhibition [2] [%] | inhibition [4] [%] | Ki [5] [µM] | Ki [6] [µM] | Ki [3] [µM]
Nc1nc(CC[C@@H]2O[C@H](COCc3ccc(Br)cc3)[C@@H](O)[C@H]2O)nc(NC2Cc3ccccc3C2)n1 | ~50 | 37.5 | 55 | – | – | 100
Nc1nc(CC2O[C@H](CSCc3ccc(Cl)cc3)[C@@H](O)[C@H]2O)nc(NC2Cc3ccccc3C2)n1 (stereo not given in full) | ~55 | – | – | ~80 | – | –
Nc1nc(CC2O[C@H](CSCCc3ccccc3)[C@@H](O)[C@H]2O)nc(NC2Cc3ccccc3C2)n1 (stereo not given in full) | > 100 | 39.9 | 18 | – | – | 100
Nc1nc(C[C@@H]2O[C@H](COCc3ccc(Br)cc3)[C@@H](O)[C@H]2O)nc(NC2Cc3ccccc3C2)n1 | ~75 | – | – | ~40 | – | –
Nc1nc(C[C@@H]2O[C@H](COC/C=C/c3ccccc3)[C@@H](O)[C@H]2O)nc(NC2Cc3ccccc3C2)n1 | ~90 | – | – | ~60 | – | –
Nc1nc(NC2Cc3ccccc3C2)cc(-c2ccc(NCCCc3ccccc3O)cc2)n1 | – | – | – | – | 10 | –

Continued, in another order:

Ki [1] [µM] | inhibition [2] [%] | inhibition [4] [%] | Ki [5] [µM] | Ki [6] [µM] | SMILES | Ki [3] [µM]
> 100 | 10 | 10 | > 100 | – | Nc1nc(CC2O[C@H](CSCc3ccccc3)[C@@H](O)[C@H]2O)nc(NC2Cc3ccccc3C2)n1 (stereo not given in full) | –
> 100 | 5.5 | 16.9 | – | – | Nc1nc(CC2O[C@H](COCc3ccccc3)[C@@H](O)[C@H]2O)nc(NC2Cc3ccccc3C2)n1 (stereo not given in full) | –
– | – | – | – | 8 | Nc1nc(NC2Cc3ccccc3C2)nc(N2CCCCC2)n1 | –
> 100 | 28 | 3.4 | > 100 | – | Nc1nc(CC2O[C@H](CSc3ccccc3)[C@@H](O)[C@H]2O)nc(NC2Cc3ccccc3C2)n1 (stereo not given in full) | –
> 100 | 17.7 | 9.9 | > 100 | – | Nc1nc(NC2Cc3ccccc3C2)nc([C@H]2C[C@@H](O)[C@H](O)[C@H](OCc3ccccc3)C2)n1 | –
> 100 | 0 | 15 | > 100 | – | Cc1ccc(COC[C@H]2O[C@@H](Cc3nc(N)nc(NC4Cc5ccccc5C4)n3)[C@H](O)[C@@H]2O)cc1 | –
